# The source made the active and inactive calls. The calls are words filed in the database; no cut-off is given here.
# Experiments:
# [1] = tested on: Mus musculus; assay: Antiinflammatory activity against TPA-induced ear edema in mouse assessed as ear thickness at 0.90 umol/ear, sc administered 30 mins after TPA challenge measured after 2 to 48 hrs; type: functional, organism-based
# [2] = tested on: Mus musculus; assay: Antiinflammatory activity against TPA-induced ear edema in mouse assessed as ear thickness at 0.088 to 1.77 umol/ear, sc administered 30 mins after TPA challenge measured after 2 to 48 hrs; type: functional, organism-based
# [3] = tested on: Mus musculus; assay: Antiinflammatory activity against TPA-induced ear edema in mouse assessed as ear thickness, sc administered 30 mins after TPA challenge measured after 2 to 48 hrs; type: functional, organism-based
# [4] = tested on: Mus musculus; assay: Antiinflammatory activity against TPA-induced ear edema in mouse assessed as ear thickness at 0.22 umol/ear, topically administered 30 mins after TPA challenge measured after 8 hrs
# [5] = tested on: Mus musculus; assay: Antiinflammatory activity against TPA-induced ear edema in mouse assessed as ear thickness at 0.91 umol/ear, sc administered 30 mins after TPA challenge measured after 2 to 48 hrs; type: functional
# [6] = tested on: Mus musculus; assay: Antiinflammatory activity against TPA-induced ear edema in mouse assessed as ear thickness at 0.023 to 0.91 umol/ear, sc administered 30 mins after TPA challenge measured after 2 to 48 hrs; type: functional, organism-based
# [7] = tested on: Mus musculus; assay: Antiinflammatory activity against TPA-induced ear edema in mouse assessed as ear thickness at 1.83 umol/ear, sc administered 30 mins after TPA challenge measured after 2 to 48 hrs; type: functional, organism-based
smiles,measurement,setting,value
CCC(=O)OCC(=O)[C@@]1(OC(=O)CC)[C@@H](C)C[C@H]2[C@@H]3CCC4=CC(=O)C=C[C@]4(C)[C@@]3(F)[C@@H](O)C[C@@]21C,inhibition,[1],Active
C[C@@]1(CCc2ccoc2)[C@H](COC(=O)c2ccccc2)CC[C@]2(C)C(C(=O)O)=C[C@H](O)C[C@H]12 (relative stereo),Activity,[2],Active
same,Activity,[3],Active
same,inhibition (INH),[4],70.2%
C[C@@H]1CC[C@]2(C)C(C(=O)O)=C[C@H](OC(=O)c3ccccc3)C[C@@H]2[C@]1(C)CCc1ccoc1 (relative stereo),inhibition (INH),[5],76.4%
C[C@@]1(CCc2ccoc2)[C@H](COC(=O)c2ccccc2)CC[C@]2(C)C(C(=O)O)=CCC[C@H]12 (relative stereo),Activity,[6],inactive
same,Activity,[7],Active

# From ChEMBL document CHEMBL1772958, “In vivo activity of benzoyl ester clerodane diterpenoid derivatives from Dodonaea polyandra” (2011)
